# Reference: patent US20060217400A1, “Triazolopyrimidines, methods for the production thereof, use thereof for controlling harmful fungi, and substances containing said triazolopyrimidines” (priority 2002, published 2006)
# Tested on: Alternaria solani
# Experiment: Activity against early blight of tomato caused by Alternaria solani
# Assay type: in vivo
# Settings: 250 ppm, spray on tomato leaves, rated after 5 days; untreated control 80% infected
# Experimental: The active compounds were formulated separately as a stock solution comprising 0.25% by weight of active compound in acetone or DMSO. 1% by weight of the emulsifier Uniperol® EL (wetting agent having emulsifying and dispersing action based on ethoxylated alkylphenols) was added to this solution. The stock solutions of the active compounds were diluted with water to the stated concentration. Leaves of potted plants of the cultivar “Golden Princess” were sprayed to runoff point with an aqueous suspension having the concentration of active compound stated below. The next day, the leaves were infected with an aqueous spore suspension of Alternaria solani in 2% biomalt solution having a density of 0.17×10^6 spore/ml. The plants were then placed in a water-vapor saturated chamber at temperatures between 20 and 22° C. After 5 days, the blight on the untreated, but infected control plants had developed to such an extent that the infection could be determined visually in %.
structure (smiles),measurement,value
"CCC(C)Cc1c(-c2c(F)cc(F)cc2F)c(C)nc2nc(OC)nn12 (stereo not shown) [I-11, 2-Methoxy-5-methyl-6-(2,4,6-trifluorophenyl)-7-(2-methylbutyl)-1,2,4-triazolo[1,5a]pyrimidine]","infection of the leaves, determined visually",< 10%
